# Data: ChEMBL document CHEMBL3407427, “Discovery of efficacious Pseudomonas aeruginosa-targeted siderophore-conjugated monocarbams by application of a semi-mechanistic pharmacokinetic/pharmacodynamic model” (J Med Chem, 2015)
# Tests used:
# [1] = Plasma protein binding in Wistar Han rat as percentage unbound
# [2] = Volume of distribution at steady state in Wistar Han rat at 1 mg/kg, iv infusion; format: ADME, organism-based; design: dose 1 mg/kg, route intravenous; conditions: in vivo, read-out: Vdss
# [3] = tested on: Pseudomonas aeruginosa; assay: Antimicrobial activity against Pseudomonas aeruginosa by broth microdilution method; format: functional
# [4] = Clearance in Wistar Han rat at 1 mg/kg, iv infusion; format: ADME, organism-based; design: dose 1 mg/kg, route intravenous; conditions: in vivo
# [5] = Half life in PBS buffer in pH 7.4 by UPLC analysis; format: ADME
# [6] = tested on: Acinetobacter baumannii; assay: Antimicrobial activity against Acinetobacter baumannii by broth microdilution method; format: functional
# [7] = tested on: Pseudomonas aeruginosa; assay: Antimicrobial activity against MexABCDXY-deficient Pseudomonas aeruginosa PAO1 ARC546 by broth microdilution method; format: functional
# [8] = tested on: Klebsiella pneumoniae; assay: Antimicrobial activity against Klebsiella pneumoniae by broth microdilution method; format: functional
# [9] = Percentage unbound in human plasma at 10 uM after 16 hrs by LC-MS/MS analysis
# [10] = tested on: Escherichia coli; assay: Antimicrobial activity against Escherichia coli by broth microdilution method; format: functional
# [11] = Half life in Wistar Han rat at 1 mg/kg, iv infusion; format: ADME, organism-based; design: dose 1 mg/kg, route intravenous; conditions: in vivo
# [12] = tested on: Pseudomonas aeruginosa; assay: Antimicrobial activity against Pseudomonas aeruginosa PAO1 ARC545 by broth microdilution method; format: functional
# [13] = tested on: Pseudomonas aeruginosa; assay: Inhibition of Pseudomonas aeruginosa PBP3 acylation activity by BOCILLIN FL-based assay
SMILES,fraction unbound [1],Vd [2],MIC90 [3],clearance [4],half-life [5],MIC90 [6],MIC [7],MIC90 [8],"fraction unbound at 16 h, 10 µM [9]",MIC90 [10],half-life [11],MIC [12],Kinact [13]
C[C@H]1[C@H](NC(=O)/C(=N\OC(C)(C)C(=O)O)c2csc(N)n2)C(=O)N1C(=O)NS(=O)(=O)N1CCN(C(=O)c2cc(=O)c(O)c[nH]2)N(C)C1=O,0.15,0.42 L/kg,2 µg/mL,12 mL/min/kg,38 h,> 128 µg/mL,< 0.06 µg/mL,64 µg/mL,0.14,64 µg/mL,0.37 h,1 µg/mL,2.6 ×10⁴ /M/s
C[C@H]1[C@H](NC(=O)/C(=N\OC(C)(C)C(=O)O)c2csc(N)n2)C(=O)N1C(=O)NS(=O)(=O)N1CCN(C(=O)c2cc(=O)c(O)c[nH]2)CC1,,,,,> 150 h,,< 0.06 µg/mL,,0.26,,,8 µg/mL,2.4 ×10⁴ /M/s
C[C@H]1[C@H](NC(=O)/C(=N\OC(C)(C)C(=O)O)c2csc(N)n2)C(=O)N1C(=O)NS(=O)(=O)N1C[C@@H](NC(=O)N(C)Cc2cc(=O)c(O)cn2O)CC1=O,,,,,> 150 h,,0.25 µg/mL,,0.26,,,1 µg/mL,1.9 ×10⁴ /M/s
C[C@H]1[C@H](NC(=O)/C(=N\OC(C)(C)C(=O)O)c2csc(N)n2)C(=O)N1C(=O)NS(=O)(=O)N1C[C@@H](NC(=O)[C@H](CC(=O)O)NC(=O)c2cc(=O)c(O)c[nH]2)CC1=O,,,,,> 150 h,,0.5 µg/mL,,0.14,,,1 µg/mL,3.8 ×10⁴ /M/s
C[C@H]1[C@H](NC(=O)/C(=N\OC(C)(C)C(=O)O)c2csc(N)n2)C(=O)N1C(=O)NS(=O)(=O)N1C[C@@H](NC(=O)c2cc(=O)c(O)c[nH]2)CC1=O,0.06,0.44 L/kg,2 µg/mL,16 mL/min/kg,> 150 h,> 64 µg/mL,< 0.06 µg/mL,32 µg/mL,0.24,32 µg/mL,0.34 h,1 µg/mL,1.5 ×10⁵ /M/s
CC(C)(O/N=C(\C(=O)NC1CN(C(=O)NS(=O)(=O)N2CCN(NC(=O)c3cc(=O)c(O)c[nH]3)C2=O)C1=O)c1csc(N)n1)C(=O)O (stereo not drawn) [PIRAZMONAM],,,,,41 h,,0.06 µg/mL,,0.29,,,0.25 µg/mL,1.4 ×10⁵ /M/s
C[C@H]1[C@H](NC(=O)/C(=N\OC(C)(C)C(=O)O)c2csc(N)n2)C(=O)N1C(=O)NS(=O)(=O)N1C[C@@H](NC(=O)[C@H](CC(=O)O)NC(=O)c2cc(=O)c(O)cn2O)CC1=O,,,,,> 150 h,,< 0.06 µg/mL,,0.43,,,0.25 µg/mL,2 ×10⁵ /M/s
C[C@H]1[C@H](NC(=O)/C(=N\OC(C)(C)C(=O)O)c2csc(N)n2)C(=O)N1C(=O)NS(=O)(=O)N1C[C@@H](n2cc(-c3cc(=O)c(O)c[nH]3)nn2)CC1=O,,,,,117 h,,< 0.06 µg/mL,,0.31,,,4 µg/mL,2.3 ×10⁵ /M/s
C[C@H]1[C@H](NC(=O)/C(=N\OC(C)(C)C(=O)O)c2csc(N)n2)C(=O)N1C(=O)NS(=O)(=O)N1C[C@@H](NCc2cc(=O)c(O)c[nH]2)CC1=O,,,,,48 h,,0.5 µg/mL,,0.4,,,8 µg/mL,5.7 ×10⁴ /M/s

# Results, then the compound that gave them:
fraction unbound [1],Vd [2],MIC90 [3],clearance [4],half-life [5],MIC90 [6],MIC [7],MIC90 [8],"fraction unbound at 16 h, 10 µM [9]",MIC90 [10],half-life [11],MIC [12],Kinact [13],SMILES
0.29,0.29 L/kg,2 µg/mL,9 mL/min/kg,87 h,> 128 µg/mL,< 0.06 µg/mL,32 µg/mL,0.26,16 µg/mL,0.49 h,0.5 µg/mL,5.9 ×10⁴ /M/s,C[C@H]1[C@H](NC(=O)/C(=N\OC(C)(C)C(=O)O)c2csc(N)n2)C(=O)N1C(=O)NS(=O)(=O)N1C[C@@H](NC(=O)NCc2cc(=O)c(O)cn2O)CC1=O
,,,,40 h,,2 µg/mL,,,,,16 µg/mL,3.8 ×10³ /M/s,C[C@H]1[C@H](NC(=O)/C(=N\OC(C)(C)C(=O)O)c2csc(N)n2)C(=O)N1C(=O)NS(=O)(=O)N1N=C(c2cc(=O)c(O)c[nH]2)NCC1=O
,,,,> 150 h,,< 0.06 µg/mL,,0.61,,,8 µg/mL,2.5 ×10⁴ /M/s,C[C@H]1[C@H](NC(=O)/C(=N\OC(C)(C)C(=O)O)c2csc(N)n2)C(=O)N1C(=O)NS(=O)(=O)NCc1cc(=O)c(O)c[nH]1
,,,,> 150 h,,< 0.06 µg/mL,,0.25,,,0.5 µg/mL,3.5 ×10⁵ /M/s,C[C@H]1[C@H](NC(=O)/C(=N\OC(C)(C)C(=O)O)c2csc(N)n2)C(=O)N1C(=O)NS(=O)(=O)N1C[C@H](NC(=O)c2cc(=O)c(O)c[nH]2)CC1=O
,,,,114 h,,0.5 µg/mL,,0.28,,,8 µg/mL,1.4 ×10⁴ /M/s,C[C@H]1[C@H](NC(=O)/C(=N\OC(C)(C)C(=O)O)c2csc(N)n2)C(=O)N1C(=O)NS(=O)(=O)N1C[C@@H](NC(=O)[C@@H]2CCCN2C(=O)c2cc(=O)c(O)c[nH]2)CC1=O
